Measured values published in US5324832A, “Muscarinic antagonists” (priority 1991, dated 1994).

Columns and labels:
[1] = target: m1 through m4 muscarinic receptors; assay: Displacement of [3H]NMS from muscarinic receptors (m1-m4), subtype not singled out; type: binding; details: for Ki: in the vicinity of, subtype not stated, read-out: Ki, inhibition of [3H]NMS binding; for affinity / potency at muscarinic receptors: qualitative
Text: The analogues were screened in binding assays using membranes from cells or tissues containing primarily single subtypes of m1 through m4 muscarinic receptors. Transfected A9L cells were used as a source of homogeneous populations of m1, m3, and m4 receptors. See Jones, S. V.; Barker, J. L.; Buckley, N. J.; Bonner, T. I; Brann, M. R., Mol. Pharmacol., 1988, 34, 421, which is specifically incorporated by reference herein. Rat heart tissue was the source of m2 muscarinic receptors.
A crude membrane fraction was obtained as follows. Confluent cultures were rinsed three times with phosphate-buffered saline, and lysed in a solution of 2 mM Tris-HCl (pH 7.1) and 1 mM EDTA for 30 min at 2° C. The cells were harvested by scraping and homogenized on a Polytron (10 sec, 75% mix).
(§1) Nuclei were removed in a low speed centrifugation (400 × g, 5 min) and a crude membrane preparation was obtained by centrifugation of the supernatant at 50,000 × g for 20 min. The resulting pellet was resuspended in the lysis buffer and recentrifuged at 50,000 × g for 20 min. Membranes were stored frozen at -70° C. until needed.
(§2) The total volume was 1 mL.
The incubation was terminated by rapid filtration over GF/B filters using a Brandel cell harvester. The filters were washed three times with ice-cold 0.9% NaCl, equilibrated in scintillation counting fluid and counted on a Beckmann LS 5801 liquid scintillation counter at 47% efficiency.
(§3) It was routinely subtracted from the total counts.

m1 muscarinic receptors = target: T1, m1 muscarinic receptors (Rattus norvegicus, UniProt P08482); assay: Inhibition of [3H]NMS binding, membranes of transfected A9L cells expressing m1 receptors; parameters: expressed in transfected cells; host or cells: A9L cells (obtained from Dr. M. Brann, NIH)
T1 sequence (P08482 1-460): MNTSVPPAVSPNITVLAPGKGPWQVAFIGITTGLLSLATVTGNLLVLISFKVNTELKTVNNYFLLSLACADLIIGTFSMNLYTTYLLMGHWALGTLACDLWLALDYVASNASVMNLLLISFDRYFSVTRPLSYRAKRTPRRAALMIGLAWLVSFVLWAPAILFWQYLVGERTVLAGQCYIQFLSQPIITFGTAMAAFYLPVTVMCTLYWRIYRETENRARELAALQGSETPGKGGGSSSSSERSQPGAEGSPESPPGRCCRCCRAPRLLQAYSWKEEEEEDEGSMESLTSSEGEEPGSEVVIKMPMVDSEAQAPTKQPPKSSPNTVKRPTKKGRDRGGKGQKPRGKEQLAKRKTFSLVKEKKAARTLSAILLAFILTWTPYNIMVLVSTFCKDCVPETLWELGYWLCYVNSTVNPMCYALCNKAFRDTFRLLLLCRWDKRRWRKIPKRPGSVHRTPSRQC
Description: The analogues were screened in binding assays using membranes from cells or tissues containing primarily single subtypes of m1 through m4 muscarinic receptors. Transfected A9L cells were used as a source of homogeneous populations of m1, m3, and m4 receptors. […] Rat heart tissue was the source of m2 muscarinic receptors.
A crude membrane fraction was obtained as follows. Confluent cultures were rinsed three times with phosphate-buffered saline, and lysed in a solution of 2 mM Tris-HCl (pH 7.1) and 1 mM EDTA for 30 min at 2° C.
as §1, §2
The incubation was terminated by rapid filtration over GF/B filters using a Brandel cell harvester.
as §3

muscarinic receptors = details: in words; cited from earlier work

## O=C1Nc2cccnc2N(C(=O)CN2CCN(CCO)CC2)c2ccccc21 [Compound 25, 5,11-Dihydro-11-[(4-[2-hydroxyethyl]-1-piperazinyl)acetyl]-6H-pyrido[2,3-b][1,4]benzodiazepine-6-one]
[1]
  Ki: ~1000 nM

## CC(=O)NCCN1CCN(CC(=O)N2c3ccccc3C(=O)Nc3cccnc32)CC1 [Compound 28]
[1]
  Ki: ~1000 nM

## NCCCCCN1CCN(CC(=O)N2c3ccccc3C(=O)Nc3cccnc32)CC1 [Compound 34c]
m1 muscarinic receptors; in favor of m1 versus m2 receptors
  selectivity ratio m1 versus m2 receptors: 5 fold

## COc1ccccc1CNCCCCCCNCCCCCCCCNCCCCCCNCc1ccccc1OC [methoctramine]
Muscarinic receptors
  muscarinic receptor selectivity (literature): m2-selective muscarinic antagonist

## CN1CCN(CC(=O)N2c3cc(CO)ccc3C(=O)Nc3cccnc32)CC1 [Compound 16, 5,11-Dihydro-9-hydroxymethyl-11-[(4-methyl-1-piperazinyl)acetyl]-6H-pyrido[2,3-b] [1,4]benzodiazepine-6-one]
[1]; in words
  displacement of [3H]NMS from the receptor: detectable displacement of [^3 H]NMS

## C#CCN1CCN(CC(=O)N2c3ccccc3C(=O)Nc3cccnc32)CC1 [Compound 22, 5,11-Dihydro-11-[(4-propargyl-1-piperazinyl)acetyl]-6H-pyrido[2,3-b][1,4]benzodiazepine-6-one]
[1]
  Ki: ~1000 nM
[1]; in words, m1 versus m2 / among subtypes
  receptor subtype selectivity: non-selective

## CN1CCN(CC(=O)N2c3ccccc3C(=O)N(CCCCCCC#N)c3cccnc32)CC1 [Compound 17b]
[1]; in words
  affinity / potency at muscarinic receptors: low affinity

## CCN1C(=O)c2ccccc2N(C(=O)CN2CCN(C)CC2)c2ncccc21 [Compound 17a, 5-Ethyl-11-hydro-[(4-methyl-1-piperazinyl)acetyl]-6H-pyrido[2,3-b][1,4]-benzodiazepine-6-one]
[1]; in words
  affinity / potency at muscarinic receptors: low affinity

## CCN(CC)CCCCC1CCN(CC(=O)N2c3ccccc3C(=O)Nc3cccnc32)CC1 [AQ-RA 741]
Muscarinic receptors
  muscarinic receptor selectivity (literature): selective for M2 receptors

## Cc1scc2c1N(C(=O)CN1CCN(C)CC1)c1ccccc1NC2=O [telenzepine]
Muscarinic receptors
  muscarinic receptor selectivity (literature): preserve selectivity for m1 receptors
  potency as muscarinic antagonist relative to pirenzepine (literature): more potent antagonist
m1 muscarinic receptors; m1 versus m2 receptors
  selectivity ratio / factor for m1 receptors: 25

## CSc1ccc2c(c1)C(=O)Nc1cccnc1N2C(=O)CN1CCN(C)CC1 [Compound 11a]
[1]; in words
  displacement of [3H]NMS from the receptor: detectable displacement of [^3 H]NMS

## NCCCCCCCCCN1CCN(CC(=O)N2c3ccccc3C(=O)Nc3cccnc32)CC1 [Compound 34g]
[1]; in words
  affinity / potency at muscarinic receptors: higher affinities than the corresponding derivatives with the small neutral acetylamino terminal group (35g and 35h)

## NCCN1CCN(CC(=O)N2c3ccccc3C(=O)Nc3cccnc32)CC1 [Compound 27, 5,11-Dihydro-11-[(4-[2-aminoethyl]-1-piperazinyl)acetyl]-6H-pyrido[2,3-b][1,4]benzodiazepine-6-one]
[1]
  Ki: ~1000 nM

## Cc1scc2c1N(C(=O)CN1CCN(CCCCCCCCCCN)CC1)c1ccccc1NC2=O [Compound 40, n=10, 4,9-Dihydro-3-methyl-4-[[4-(10-aminodecyl)-1-piperazinyl]-acetyl]-10H-thieno[3,4-b][1,5]benzodiazepin-10-one]
m1 muscarinic receptors; radioligand binding assays, read-out: affinity for m1 receptors (Ki)
  Ki: 2.39 nM
